# Earlier results in patent publication US7732483B2, “DNA-PK inhibitors” (Kudos Pharmaceuticals Limited, priority 2004, dated 2010).
# Test system: cells
# Details: Rosenzweig et al. 1999
smiles,measurement,value
O=c1cc(N2CCOCC2)oc2c(-c3ccccc3)cccc12 [LY294002],sensitisation of cells to the effects of IR,weakly sensitise cells to the effects of IR
